Test system: drug-resistant clinical isolates of M. tuberculosis
Assay type: cell-based

For `NC(=S)NN=Cc1ccncc1.[O-][Cl+3]([O-])([O-])O` [new treatment], the “MIC for 88.8% of cultures” value was 3.125 to 6.25 µg/mL.
